In patent publication US20250109120A1, “INDOLINE DERIVATIVES FOR TREATMENT AND/OR PREVENTION OF TUMOR OR CELL PROLIFERATIVE AND FIBROSIS DISEASES” (NATIONAL TAIWAN UNIVERSITY, priority 2023, published 2025):

How the values were obtained:
CDK8 = CDK8 (Homo sapiens (Human), UniProt P49336); assay: LanthaScreen Eu Binding Assay, Thermo Fisher SelectScreen kinase service; details: for inhibition at 10 µM: read-out: CDK8 Inhibition percentage at 10 μM; for IC50: read-out: Inhibition of CDK8 IC50
Procedure: Compounds were tested for kinase inhibitory activity using the Thermo Fisher SelectScreen service (www.thermofisher.com/selectscreen). For CDK8, the LanthaScreen Eu Binding Assay was used. Briefly, the assay employed utilizes a fluorescent tracer to a given kinase. This is used to detect the addition of an anti-tag antibody. When the tracer and antibody bind to the targeted kinase, the Forster resonance energy transfer is measured. When a kinase inhibitor is added to the assay, the tracer/kinase binding will be disrupted, producing low FRET detection and indicating kinase inhibitory activity. Evaluation of kinase activity of additional kinase targets utilized the LanthaScreen binding assay or the Z′-Lyte activity assay provided by Thermo Fisher SelectScreen service. The IC50 values were determined using sequential doses, and the inhibition curves were provided by Thermo Fisher Scientific.
The fragment-based drug design strategy in this study led to optimized CDK8 inhibitors with promising results. CDK8-inhibitory activities of the compounds (a-n) designed by this fragment-based drug design strategy were tested using the SelectScreen kinase service of ThermoFisher Scientific. The inhibitory effects of the 14 compounds and the referenced compound were tested at a concentration of 10 μM.

A549 cells [1] = assay: TGF-β1-induced EMT protein expression, western blot; assay type: cell-based, human; details: test compounds 2 μM, senexin A 5 μM, pirfenidone 1 mM; TGF-β1 10 ng/mL
Procedure: FIGS. 4A-4B show the inhibition of epithelial-to-mesenchymal transition protein expressions by CDK8 inhibitors in human alveolar epithelial cells. […] Cell lysates were subjected to a Western blot analysis using the indicated antibodies. Results are shown as the mean t SEM from three independent experiments. *p<0.05, and ***p<0.001 compared to the control group; #p<0.05, ##p<0.01, and ###p<0.001 compared to the TGF-β1-treated group. […] Cell viabilities were determined by an MTT assay. Results are shown as the mean t SEM of three independent experiments.
(§1) Cells (106) were incubated for 10 min at 4° C. in lysis buffer (20 mM HEPES at pH 7.4, 2 mM EGTA, 50 mM β-glycerophosphate, 0.1% Triton X-100, 10% glycerol, 1 mM DTT, 1 μg/mL of leupeptin, 5 μg/mL of aprotinin, 1 mM phenylmethylsulfonyl fluoride, and 1 mM sodium orthovanadate), scraped off, incubated on ice for an additional 10 min, and centrifuged at 17,000 g for 30 min at 4° C. Protein samples (20 μg) were then electrophoresed on SDS-polyacrylamide gel electrophoresis (PAGE) gels and transferred to a nitrocellulose membrane, which was then blocked by incubation for 30 min at room temperature with 5% bovine serum albumin (BSA) in Tris-buffered saline with 0.1% Tween-20 (TBST). Immunoblotting was performed by overnight incubation at 4° C. with primary antibodies in TBST, followed by incubation for 1 h at room temperature with horseradish peroxidase (HRP)-conjugated secondary antibodies. Bound antibodies were measured using enhanced chemiluminescence (ECL) reagent (GE Healthcare, UK) and exposed to photographic film.

A549 cells [2] = assay: Nuclear p-Smad3 T179 and RNA polymerase II pS2/S5 after TGF-β1, fractionation and western blot; assay type: cell-based, human; details: compound k 5 μM, senexin A 5 μM, pirfenidone 1 mM; TGF-β1 10 ng/ml 3 h
Procedure: FIGS. 8A-8B show the inhibitory effects of cellular distributions of TGF-β1-induced p-Smad3 T179, RNA polymerase II pS2/S5, and Smad3 after treatment with compound k. Human alveolar epithelial A549 cells were incubated with compound k (5 μM), senexin A (5 μM), or pirfenidone (1 mM) for 1 h, followed by stimulation with TGF-β1 (10 ng/ml) for 3 h. Protein expressions in the cytoplasmic and nuclear fractions were subjected to a Western blot analysis using the indicated antibodies. α-Tubulin and histone H3 served as loading controls for the cytoplasmic and nuclear fractions, respectively. Results are shown as the mean±SEM of three independent experiments. **p<0.01 and ***p<0.001 compared to the control group; #p<0.05 and ##p<0.01 compared to the TGF-β1-treated group.
as §1
A Nuclear/Cytosol Fractionation Kit (Biovision, USA) was used to separate the cytosolic and nuclear fractions. […]

A549 cells [3] = assay: TGF-β1-induced oxidative stress (MDA, Nox4); assay type: cell-based, human; details: compounds 2 μM, TGF-β1 10 ng/ml 24 h
Procedure: A549 cells were incubated with compounds k, b, a (2 μM), senexin A (5 μM), or pirfenidone (1 mM) for 1 h, followed by treatment with 10 ng/ml TGF-β1 for a further 24 h. Malondialdehyde (MDA) (FIG. 10A) and Nox4 (FIG. 10B) levels were detected. ***p<0.001 compared to the control group; #p<0.05, ##p<0.01, and ###p<0.001 compared to the TGF-β1-treated group.
An end product of lipid peroxidation, malondialdehyde (MDA), was measured by spectrophotometry at a wavelength of 532 nm using malondialdehyde bis(dimethyl acetal) as the standard as per the assay protocol (Cell Biolabs, USA).

A549 cells [4] = assay: Wound-healing migration assay; assay type: cell-based, human; details: compounds 2 μM, senexin A 5 μM, pirfenidone 1 mM; TGF-β1 10 ng/mL; 24 or 48 h
Procedure: A549 cells were incubated in six-well plates until reaching 90% confluency, scratched with a pipette tip, and immediately photographed (0 h). Cells were incubated with or without compound k (2 μM), senexin A (5 μM), or pirfenidone (1 mM) for 1 h, then treated with TGF-β1 (10 ng/mL) and allowed to migrate into the wound area for 24 or 48 h, and photographed. Cell migration into the wound was quantified using ImageJ software; the solid line indicates time zero. Quantitative assessment of the mean number of cells in the denuded zone is expressed as the mean±SEM from three independent experiments. **p<0.01 compared to the control group; ##p<0.01 and ###p<0.001 compared to TGF-β1-treated group.
Cells were seeded in six-well plates and cultured to 90% confluency, at which time the cellular monolayer was wounded with a sterile 10-μL pipette tip and washed with culture medium to remove detached cells. Cells were incubated in the presence or absence of test compounds for 24 h and photographed. The wound closure percentages were subsequently determined using ImageJ software (National Institutes of Health, USA).

Sequence of CDK8 (P49336 whole entry, looked up): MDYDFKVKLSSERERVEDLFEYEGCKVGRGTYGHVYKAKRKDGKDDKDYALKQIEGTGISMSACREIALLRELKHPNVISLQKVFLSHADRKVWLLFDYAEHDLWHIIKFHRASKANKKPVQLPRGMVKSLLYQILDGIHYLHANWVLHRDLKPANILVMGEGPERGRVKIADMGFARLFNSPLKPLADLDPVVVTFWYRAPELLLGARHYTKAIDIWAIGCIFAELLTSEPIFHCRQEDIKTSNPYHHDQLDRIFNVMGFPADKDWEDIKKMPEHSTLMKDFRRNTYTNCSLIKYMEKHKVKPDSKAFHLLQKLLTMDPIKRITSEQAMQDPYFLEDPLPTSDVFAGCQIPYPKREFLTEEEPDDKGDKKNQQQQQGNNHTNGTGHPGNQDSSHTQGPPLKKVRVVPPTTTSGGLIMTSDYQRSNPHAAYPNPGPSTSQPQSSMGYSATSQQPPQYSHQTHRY
Sequence of CDK8 (P24863 whole entry partner, looked up): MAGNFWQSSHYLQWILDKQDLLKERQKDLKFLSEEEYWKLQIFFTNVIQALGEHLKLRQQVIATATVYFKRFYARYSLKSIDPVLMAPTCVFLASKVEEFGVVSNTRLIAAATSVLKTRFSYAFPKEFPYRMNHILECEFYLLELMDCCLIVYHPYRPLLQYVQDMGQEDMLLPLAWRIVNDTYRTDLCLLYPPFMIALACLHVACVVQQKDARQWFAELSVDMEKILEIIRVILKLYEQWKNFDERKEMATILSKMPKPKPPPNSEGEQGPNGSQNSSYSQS

SMILES	inhibition at 10 µM (CDK8) [%]	IC50 (CDK8) [nM]	CDK8 Inhibition percentage at 10 μM (CDK8) [%]	further results
CC(C)=C1C(=O)Nc2ccc(S(=O)(=O)Nc3ccc(C(=O)c4ccccc4)cc3)cc21 [Compound d, N-(4-Benzoylphenyl)-2-oxo-3-(propan-2-ylidene)indoline-5-sulfonamide]	99	380	–	–
CC(C)=C1C(=O)Nc2ccc(S(=O)(=O)Nc3cc(-c4ccccc4)[nH]n3)cc21 [Compound e, 2-Oxo-N-(5-phenyl-1H-pyrazol-3-yl)-3-(propan-2-ylidene)indoline-5-sulfonamide]	82	1640	–	–
CC(C)=C1C(=O)Nc2ccc(S(=O)(=O)Nc3cc(-c4ccc(C)cc4)[nH]n3)cc21 [Compound f, 2-Oxo-3-(propan-2-ylidene)-N-(5-(p-tolyl)-1H-pyrazol-3-yl) indoline-5-sulfonamide]	–	798	89	–
CC(C)=C1C(=O)Nc2ccc(S(=O)(=O)Nc3cccc4c(=O)[nH][nH]c(=O)c34)cc21 [Compound n, N-(1,4-Dioxo-1,2,3,4-tetrahydrophthalazin-5-yl)-2-oxo-3-(propan-2-ylidene)indoline-5-sulfonamide]	74	3000	–	–
CC(=O)c1cccc(NS(=O)(=O)c2ccc3c(c2)C(=C(C)C)C(=O)N3)c1 [Reference Compound, N-(3-acetylphenyl)-2-oxo-3-(propan-2-ylidene)-indoline-5-sulfonamide, reference compound]	87	1680	–	–
CC(C)=C1C(=O)Nc2ccc(S(=O)(=O)Nc3nnc(-c4ccccc4)s3)cc21 [Compound g, 2-Oxo-N-(5-Phenyl-1,3,4-thiadiazol-2-yl)-3-(propan-2-ylidene) indoline-5-sulfonamide]	–	338	99	–
CNC(=O)c1cc(Oc2ccc(NS(=O)(=O)c3ccc4c(c3)C(=C(C)C)C(=O)N4)cc2)ccn1 [Compound j, N-Methyl-4-(4-((2-oxo-3-(propan-2-ylidene)indoline)-5-sulfonamido)phenoxy)picolinamide]	–	1240	85	–
CNC(=O)c1ccc(NS(=O)(=O)c2ccc3c(c2)C(=C(C)C)C(=O)N3)cc1F [Compound l, 2-Fluoro-N-methyl-4-((2-oxo-3-(propan-2-ylidene)indoline)-5-sulfonamido)benzamide]	–	652	92	–
Cc1ccc(=O)n(-c2ccccc2)c1 [pirfenidone, reference compound]	–	–	–	TGF-β1-triggered EMT protein expressions (A549 cells [1]): slight inhibition; phosphorylation of p-Smad3 T179 and RNA Pol II pSer2/5 (A549 cells [2]): less-potent inhibition
CC(C)=C1C(=O)Nc2ccc(S(=O)(=O)Nc3ccc(Nc4ccccc4)cc3)cc21 [Compound b, 2-Oxo-N-(4-(phenylamino)phenyl)-3-(propan-2-ylidene)indoline-5-sulfonamide]	76	1570	–	TGF-β1-triggered EMT protein expressions (A549 cells [1]): slight reduction; TGF-β1-caused oxidative stress (MDA and Nox4 levels) (A549 cells [3]): less-potent inhibition; inhibition of cell migration (A549 cells [4]): less inhibition
CC(C)=C1C(=O)Nc2ccc(S(=O)(=O)Nc3ccc(NC(=O)c4ccccc4)cc3)cc21 [Compound c, N-(4-((2-Oxo-3-(propan-2-ylidene)indoline)-5-sulfonamido)phenyl)benzamide]	–	–	33	–
CC(C)=C1C(=O)Nc2ccc(S(=O)(=O)Nc3ccc(-n4ccnc4)cc3)cc21 [Compound i, N-(4-(1H-imidazol-1-yl)phenyl)-2-oxo-3-(propan-2-ylidene) indoline-5-sulfonamide]	–	945	92	–
CC(C)=C1C(=O)Nc2ccc(S(=O)(=O)Nc3ccc(C)c(Nc4nccc(-c5cccnc5)n4)c3)cc21 [Compound m, N-(4-Methyl-3-((4-(pyridin-3-yl)pyrimidin-2-yl)amino)phenyl)-2-oxo-3-(propan-2-ylidene)indoline-5-sulfonamide]	46	–	–	–
CC(C)=C1C(=O)Nc2ccc(S(=O)(=O)Nc3ccc(Oc4ccc([N+](=O)[O-])cc4)cc3)cc21 [Compound a, N-(4-(4-Nitrophenoxy)phenyl)-2-oxo-3-(propan-2-ylidene)indoline-5-sulfonamide]	48	–	–	TGF-β1-triggered EMT protein expressions (A549 cells [1]): no significant reduction; TGF-β1-caused oxidative stress (MDA and Nox4 levels) (A549 cells [3]): less-potent inhibition; inhibition of cell migration (A549 cells [4]): less inhibition
CC(C)=C1C(=O)Nc2ccc(S(=O)(=O)Nc3nc4ccccc4s3)cc21 [Compound h, N-(Benzo[d]thiazol-2-yl)-2-oxo-3-(propan-2-ylidene)indoline-5-sulfonamide]	91	870	–	–
